A short description of data set [1]: Pharmacokinetic (PK) profiling in rats. Also on record: CI/F (apparent clearance values): unit not given here. Particulars: Sprague Dawley male rats, single sc 30 nmol/kg. Format: in vivo, rat. Put shortly: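 Male Sprague Dawley rats received a single sc dose of 30 nmol/kg in mannitol-containing histidine buffer (pH 7.0), with tail-vein sampling before dosing and at 24–168 hours. Plasma was ethanol-precipitated and assayed by LC-MS/MS. Non-compartmental analysis of mean concentrations gave t1/2 as ln(2)/λz and CL/F as dose/AUCinf.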

A short description of data set [2]: Assessment of chemical stability (RP-HPLC normalized purity). Format: physicochemical. Particulars: for Normalized purity after 7 days, 40° C., pH 4: pH 4, 0.2 mg/ml; for Normalized purity after 7 days, 40° C., pH 4 / Normalized purity after 7 days, 40° C., pH 6 / Normalized purity after 7 days, 40° C., pH 7.5 / Normalized purity after 7 days, 40° C., pH 9: Table 1; for Normalized purity after 7 days, 40° C., pH 6: pH 6, 0.2 mg/ml; for Normalized purity after 7 days, 40° C., pH 7.5: pH 7.5, 0.2 mg/ml; for Normalized purity after 7 days, 40° C., pH 9: pH 9, 0.2 mg/ml. Put shortly: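 Peptides at 0.2 mg/ml in water adjusted to pH 4, 6, 7.5 or 9, incubated at 40° C for 7 days. Main-peak area-% by RP-HPLC (C8 ammonium formate or C18 TFA gradient, UV 220 nm), normalized to T=0 as 100.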

Data set [3] in a line: Assessment of physical stability (Thioflavin T fibrillation). Format: physicochemical. Also on record: key: FND = fibrillation not detected; FD = fibrillation detected. Particulars: 1 mg/ml, 40° C., ThT; for Fibrillation pH 4.0 (Ac): 50 mM acetate buffer pH 4.0, 96 hours; for Fibrillation pH 7.0 (His): 50 mM histidine buffer pH 7.0, 96 hours; for Fibrillation pH 7.0 (Phos.): 50 mM phosphate buffer pH 7.0, 96 hours. The gist of the method: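 1 mg/ml peptide with 40 μM ThT in 50 mM phosphate pH 7.0, 50 mM histidine pH 7.0 or 50 mM acetate pH 4.0, in triplicate. Fluorescence read every 10 min after 300 s agitation over 96 h at 40 °C. Lag-time (h) is the intersection of linear fits to stable and growth phases.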

Here are results for 2 compounds from patent US20210115104A1, “AMYLIN ANALOGUES” (Zealand Pharma A/S, priority 2015, published 2021).

*1 amine or outer side, *2 acyl side, *3 side chain or, on linkers, in order; H or OH if unused. Where a SMILES comes first, the peptide text is derived from it. Bridges are numbered along the chain shown (N, C = ends). [ ]: non-standard residue; d: D form. The star is where a group is joined. C20 diacid = O=C(O)CCCCCCCCCCCCCCCCCCC(=O)*; γGlu = O=C(O)[C@H](CCC(=O)[*:2])N[*:1]; Hyp = O=C(O)[C@@H]1C[C@@H](O)CN1; NMeI = CC[C@H](C)[C@H](NC)C(=O)O; Sar = CNCC(=O)O

Take `CC[C@H](C)[C@@H](C(=O)N[C@@H](CC(C)C)C(=O)N[C@@H](CO)C(=O)N[C@@H](CO)C(=O)N[C@H](C(=O)N[C@@H](CCC(=O)O)C(=O)N[C@H](C(=O)NCC(=O)N[C@@H](CO)C(=O)N[C@@H](CC(N)=O)C(=O)N[C@H](C(=O)N1C[C@H](O)C[C@H]1C(N)=O)[C@@H](C)O)C(C)C)[C@@H](C)O)N(C)C(=O)[C@H](C)NC(=O)CN(C)C(=O)[C@H](Cc1ccccc1)NC(=O)[C@H](CO)NC(=O)[C@H](CO)NC(=O)[C@H](CCCNC(=N)N)NC(=O)[C@H](CCC(N)=O)NC(=O)[C@H](CC(C)C)NC(=O)[C@H](Cc1ccccc1)NC(=O)[C@H](Cc1c[nH]cn1)NC(=O)[C@H](C)NC(=O)[C@H](CC(C)C)NC(=O)[C@H](CCCNC(=N)N)NC(=O)[C@H](CCC(=O)O)NC(=O)[C@@H](NC(=O)[C@H](C)NC(=O)[C@@H]1CSSC[C@H](NC(=O)[C@H](CCCNC(=N)N)NC(=O)CC[C@H](NC(=O)CCCCCCCCCCCCCCCCCCC(=O)O)C(=O)O)C(=O)N[C@@H](CCC(N)=O)C(=O)N[C@@H]([C@@H](C)O)C(=O)N[C@@H](C)C(=O)N[C@@H]([C@@H](C)O)C(=O)N1)[C@@H](C)O` [Compound 57, [19CD]-isoGlu-R-C( )-QTAT-C( )-ATERLAHFLQRSSF-Gly(Me)-A-Ile(Me)-LSSTEVGSNT-Hyp-NH2] ({C20 diacid-γGlu}-RCQTATCATERLAHFLQRSSF[Sar]A[NMeI]LSSTEVGSNT[Hyp]-NH2; disulfide 2-7): the “CI/F (apparent clearance values)” value in data set [1] was determined as 0.0078. Also, in data set [1] (rat, plasma, read-out: Plasma terminal elimination half-life t1/2 (converted)), the half-life is 17.9 h. In addition, in data set [2], the “Normalized purity after 7 days, 40° C., pH 4” value is listed as “A (A = >90%)”; the “Normalized purity after 7 days, 40° C., pH 6” value is recorded as “A (A = >90%)”; the “Normalized purity after 7 days, 40° C., pH 7.5” value was “A (A = >90%)”; the “Normalized purity after 7 days, 40° C., pH 9” value is “A (A = >90%)”. In data set [2] (pH 4, repeat of Example 6 for pairs with/without Asn-Asn at 21-22), the “Normalized purity pH 4 (Table 5)” value is “A (A = >90%)”. Moreover, the “Normalized purity pH 6 (Table 5)” value in data set [2] (pH 6, repeat of Example 6 for pairs with/without Asn-Asn at 21-22) is listed as “A (A = >90%)”. In data set [2] (pH 7.5, repeat of Example 6 for pairs with/without Asn-Asn at 21-22), the “Normalized purity pH 7.5 (Table 5)” value is “A (A = >90%)”. Also, the “Normalized purity pH 9 (Table 5)” value in data set [2] (pH 9, repeat of Example 6 for pairs with/without Asn-Asn at 21-22) was “B (B = 70-90%)”. Moreover, in data set [3], the “Fibrillation pH 4.0 (Ac)” value was “FND”, the “Fibrillation pH 7.0 (His)” value is “FND” and the “Fibrillation pH 7.0 (Phos.)” value is “FND”.

With `CC[C@H](C)[C@@H](C(=O)N[C@@H](CC(C)C)C(=O)N[C@@H](CO)C(=O)N[C@@H](CO)C(=O)N[C@H](C(=O)N[C@@H](CCC(=O)O)C(=O)N[C@H](C(=O)NCC(=O)N[C@@H](CO)C(=O)NCC(=O)N[C@H](C(=O)N1C[C@H](O)C[C@H]1C(N)=O)[C@@H](C)O)C(C)C)[C@@H](C)O)N(C)C(=O)[C@H](C)NC(=O)CN(C)C(=O)[C@H](Cc1ccccc1)NC(=O)[C@H](CO)NC(=O)[C@H](CO)NC(=O)[C@H](CCCNC(=N)N)NC(=O)[C@H](CCC(N)=O)NC(=O)[C@H](CC(C)C)NC(=O)[C@H](Cc1ccccc1)NC(=O)[C@H](Cc1c[nH]cn1)NC(=O)[C@H](C)NC(=O)[C@H](CC(C)C)NC(=O)[C@H](CCCNC(=N)N)NC(=O)[C@H](CCC(N)=O)NC(=O)[C@@H](NC(=O)[C@H](C)NC(=O)[C@@H]1CSSC[C@H](NC(=O)[C@H](CCCNC(=N)N)NC(=O)CC[C@H](NC(=O)CCCCCCCCCCCCCCCCCCC(=O)O)C(=O)O)C(=O)N[C@@H](CC(N)=O)C(=O)N[C@@H]([C@@H](C)O)C(=O)N[C@@H](C)C(=O)N[C@@H]([C@@H](C)O)C(=O)N1)[C@@H](C)O` [Compound 71, [19CD]-isoGlu-R-C( )-NTAT-C( )-ATQRLAHFLQRSSF-Gly(Me)-A-Ile(Me)-LSSTEVGSGT-Hyp-NH2] ({C20 diacid-γGlu}-RCNTATCATQRLAHFLQRSSF[Sar]A[NMeI]LSSTEVGSGT[Hyp]-NH2; disulfide 2-7), the “CI/F (apparent clearance values)” value in data set [1] is given as 0.0146. In addition, in data set [2], the “Normalized purity after 7 days, 40° C., pH 4” value is given as “A (A = >90%)”; the “Normalized purity after 7 days, 40° C., pH 6” value is given as “A (A = >90%)”; the “Normalized purity after 7 days, 40° C., pH 7.5” value is “A (A = >90%)”; the “Normalized purity after 7 days, 40° C., pH 9” value is listed as “B (B = 70-90%)”. In addition, in data set [3], the “Fibrillation pH 4.0 (Ac)” value is listed as “FND”, the “Fibrillation pH 7.0 (His)” value is listed as “FD” and the “Fibrillation pH 7.0 (Phos.)” value was “FD”.
